This is an account of results in publication PMC3706556 (Environmental microbiology, 2013).

One data set has as its target CYP125A3 (Mycolicibacterium smegmatis, UniProt A0R4Y3). Nature of the data set: biochemical. The data set is classed as binding, Mycobacterium smegmatis mc2 155. The settings on record: for Soret band position after ligand addition: CYP125A3 3 μM, ligand 50 μM, resting Soret 393 nm with shoulder at 415 nm.
The target of data set [1] is T1, CYP142A2 (Mycolicibacterium smegmatis, UniProt A0R4Q6). Put plainly: biochemical.
In data set [2] the target is T1, CYP142A2. To be noted: CYP142A2 3 μM, ligand 50 μM; resting Soret 418 nm.

Sequence of CYP125A3 (A0R4Y3 whole entry): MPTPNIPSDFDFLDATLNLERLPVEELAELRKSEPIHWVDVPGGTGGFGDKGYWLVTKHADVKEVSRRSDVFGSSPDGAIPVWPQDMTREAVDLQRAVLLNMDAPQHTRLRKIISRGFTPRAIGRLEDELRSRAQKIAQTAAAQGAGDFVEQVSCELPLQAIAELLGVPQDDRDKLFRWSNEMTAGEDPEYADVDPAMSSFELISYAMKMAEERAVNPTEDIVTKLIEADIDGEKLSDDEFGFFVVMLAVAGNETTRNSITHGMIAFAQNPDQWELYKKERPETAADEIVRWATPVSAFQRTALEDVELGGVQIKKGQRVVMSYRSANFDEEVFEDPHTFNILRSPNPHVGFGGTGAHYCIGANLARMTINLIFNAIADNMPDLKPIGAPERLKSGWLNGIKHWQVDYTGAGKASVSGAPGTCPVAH
T1 sequence (A0R4Q6 whole entry): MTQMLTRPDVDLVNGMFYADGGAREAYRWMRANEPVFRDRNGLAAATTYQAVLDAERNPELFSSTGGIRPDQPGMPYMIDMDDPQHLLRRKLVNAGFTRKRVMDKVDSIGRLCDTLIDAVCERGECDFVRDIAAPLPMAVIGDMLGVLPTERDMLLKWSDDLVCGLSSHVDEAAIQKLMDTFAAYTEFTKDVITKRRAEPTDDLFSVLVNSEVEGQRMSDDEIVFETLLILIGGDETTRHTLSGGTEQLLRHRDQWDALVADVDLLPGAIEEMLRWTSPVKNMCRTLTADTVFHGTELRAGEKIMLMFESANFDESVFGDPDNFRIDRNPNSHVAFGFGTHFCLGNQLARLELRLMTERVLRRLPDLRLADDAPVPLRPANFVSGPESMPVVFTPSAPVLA

Usually Kd stands for the equilibrium constant for the complex coming apart. A high value points to lower affinity. Turning to `CC(C)CCC[C@@H](C)[C@H]1CC[C@H]2[C@@H]3CCC4=CC(=O)CC[C@]4(C)[C@H]3CC[C@]12C` [Cholest-4-en-3-one], the Kd at CYP125A3 was 2.3 ± 1.4 µM; on CYP142A2 [1] it was 0.52 ± 0.26 µM.

With `CC(C)CCC[C@@H](C)[C@H]1CC[C@H]2[C@@H]3CC=C4C[C@@H](O)CC[C@]4(C)[C@H]3CC[C@]12C` [Cholesterol], the values for the Kd at CYP125A3 and on CYP142A2 [1] were 1.1 ± 0.5 µM and 0.14 ± 0.07 µM, respectively. Also, the “Soret band position after ligand addition” value at CYP125A3 and at CYP142A2 [2] was 393 nm each time.

As for `Clc1ccccc1C(c1ccccc1)(c1ccccc1)n1ccnc1` [Clotrimazole], the Kd on CYP125A3 turned out to be 14.5 ± 1.58 µM; at CYP142A2 [1] it was 16.2 ± 0.75 µM.

Regarding `Clc1ccc(COC(Cn2ccnc2)c2ccc(Cl)cc2Cl)cc1` (centres unmarked) [Econazole], the Kd at CYP125A3 amounted to 7.38 ± 0.71 µM; at CYP142A2 [1] it was 7.4 ± 0.52 µM. For the same compound, the “Soret band position after ligand addition” value at CYP125A3 is 415 nm; on CYP142A2 [2], 422 nm.

Consider `Clc1ccc(COC(Cn2ccnc2)c2ccc(Cl)cc2Cl)c(Cl)c1` (centres unmarked) [Miconazole], for which the Kd amounted to 1.66 ± 0.21 µM at CYP125A3 and 6.58 ± 0.7 µM on CYP142A2 [1].
